Holding throughout (assay type): cell-based
In assay [1] the target is T1, P2X1 receptor mutant KAKRK → EADML(4) (Homo sapiens, UniProt P51575, K136E/K138D/K140L/R139M).
T1 sequence (P51575 1-399 K136E/K138D/R139M/K140L): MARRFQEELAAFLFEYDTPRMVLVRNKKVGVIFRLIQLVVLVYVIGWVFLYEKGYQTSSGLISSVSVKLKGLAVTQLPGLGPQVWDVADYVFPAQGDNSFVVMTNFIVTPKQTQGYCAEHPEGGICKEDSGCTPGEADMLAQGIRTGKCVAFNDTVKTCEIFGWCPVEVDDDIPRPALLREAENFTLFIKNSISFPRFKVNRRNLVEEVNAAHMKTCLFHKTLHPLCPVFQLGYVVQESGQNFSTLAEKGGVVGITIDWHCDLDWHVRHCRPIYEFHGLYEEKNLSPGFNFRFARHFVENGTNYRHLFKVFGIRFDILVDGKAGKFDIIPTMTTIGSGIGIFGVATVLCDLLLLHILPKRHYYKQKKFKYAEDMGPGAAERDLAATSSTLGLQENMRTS
The experiment in a line: Two-electrode voltage clamp, P2X1 mutant X1-EADML. Background: Two-electrode voltage clamp is typically applied to oocytes expressing channels or transporters.

Assay [2] addresses T2, P2X1 Cys2(1-6) chimera (Homo sapiens, UniProt P51575, A118P/A137L/A141G/A151Y/D154G/DEL120-123/E128S/F152Y/G124S/G131D/I144L/I161V/INS125RVHNAT/INS150P/K127L/K136E/K138D/K140L/K148R/N153Q/P134A/Q142N/R139M/S130A/T133V/T155P/V156S).
T2 sequence (P51575 with tags, fused parts or gaps A118P/DEL120-123/G124S/INS125RVHNAT/K127L/E128S/S130A/G131D/T133V/P134A/K136E/A137L/K138D/R139M/K140L/A141G/Q142N/I144L/K148R/INS150P/A151Y/F152Y/N153Q/D154G/T155P/V156S/I161V): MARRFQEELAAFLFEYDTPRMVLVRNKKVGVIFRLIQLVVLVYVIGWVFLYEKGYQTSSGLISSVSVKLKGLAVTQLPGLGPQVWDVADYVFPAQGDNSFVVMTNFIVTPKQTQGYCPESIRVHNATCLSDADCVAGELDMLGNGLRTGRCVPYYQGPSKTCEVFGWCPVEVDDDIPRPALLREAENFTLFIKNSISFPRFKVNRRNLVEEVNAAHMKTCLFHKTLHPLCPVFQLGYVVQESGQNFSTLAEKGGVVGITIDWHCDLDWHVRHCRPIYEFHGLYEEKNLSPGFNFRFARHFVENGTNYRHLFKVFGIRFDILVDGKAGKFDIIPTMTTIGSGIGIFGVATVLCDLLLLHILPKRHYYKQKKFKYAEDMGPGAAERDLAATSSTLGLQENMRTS
The experiment in a line: Two-electrode voltage clamp, chimera P2X1 Cys2. The settings on record: P2X1 Cys2(1–6).

Assay [3] addresses T3, P2X1 receptor mutant K138D (Homo sapiens, UniProt P51575, K138D).
T3 sequence (P51575 1-399 K138D): T1 sequence (P51575 1-399 K136E/K138D/R139M/K140L) with E136K, M139R, L140K
The experiment in a line: Two-electrode voltage clamp, P2X1 mutant K138D.

Assay [4] has as its target T4, P2X2 receptor mutant X2-KLKML(2) (E134KD136K) (Homo sapiens, UniProt Q9UBL9, D148K/E146K).
T4 sequence (Q9UBL9 1-471 E146K/D148K): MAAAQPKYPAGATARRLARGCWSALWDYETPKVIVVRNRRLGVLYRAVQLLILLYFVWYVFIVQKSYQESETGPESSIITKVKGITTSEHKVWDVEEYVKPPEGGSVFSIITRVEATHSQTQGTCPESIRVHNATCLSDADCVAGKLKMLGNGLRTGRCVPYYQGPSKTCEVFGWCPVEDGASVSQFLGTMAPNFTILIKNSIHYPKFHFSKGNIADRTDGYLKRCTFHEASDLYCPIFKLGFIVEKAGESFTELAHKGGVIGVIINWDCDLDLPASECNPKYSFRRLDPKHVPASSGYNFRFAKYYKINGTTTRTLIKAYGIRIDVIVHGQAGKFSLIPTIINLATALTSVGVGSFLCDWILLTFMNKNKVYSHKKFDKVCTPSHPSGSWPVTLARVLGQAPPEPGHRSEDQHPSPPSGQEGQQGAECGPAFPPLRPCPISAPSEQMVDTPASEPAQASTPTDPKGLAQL
The assay can be described thus: Two-electrode voltage clamp, P2X2 mutant X2-KLKML. The settings on record: double mutation E134KD136K.

Substitutions are numbered along the chain they refer to.

In the case of `O=C(Nc1cc(C(=O)Nc2ccc(S(=O)(=O)O)cc2S(=O)(=O)O)cc(C(=O)Nc2ccc(S(=O)(=O)O)cc2S(=O)(=O)O)c1)Nc1cc(C(=O)Nc2ccc(S(=O)(=O)O)cc2S(=O)(=O)O)cc(C(=O)Nc2ccc(S(=O)(=O)O)cc2S(=O)(=O)O)c1` [NF449, 4,4′,4′′,4′′′-(carbonylbis(imino-5,1,3-benzenetriyl-bis(carbonylimino)))tetrakis-benzene-1,3-disulphonic acid], in assay [1], the “Reduction in NF449 sensitivity compared with WT P2X1” value is recorded as around 600 fold. Also, the “Reduction in NF449 sensitivity compared with P2X1 WT” value is reported as around 300 fold in assay [2] and around 10 fold in assay [3]. The “Hill slope of NF449 inhibition curve” value in assay [2] (vs EC90 ATP) is given as 1.38 ± 0.07.
For `Cc1ccc(C(=O)Nc2ccc(S(=O)(=O)O)c3cc(S(=O)(=O)O)cc(S(=O)(=O)O)c23)cc1NC(=O)c1cccc(NC(=O)Nc2cccc(C(=O)Nc3cc(C(=O)Nc4ccc(S(=O)(=O)O)c5cc(S(=O)(=O)O)cc(S(=O)(=O)O)c45)ccc3C)c2)c1` [suramin], the “Increase in suramin sensitivity compared with WT P2X2” value in assay [4] turned out to be 10 fold.

The values above are taken from paper PMC3268193 (British Journal of Pharmacology, 2012).
